Measured values taken from ChEMBL document CHEMBL1147421, “Diamine derivatives with antiparasitic activities” (Bioorg Med Chem Lett, 2004).

Columns and labels:
Plasmodium falciparum [1] = test: Antiparasitic activity against Plasmodium falciparum D6; assay type: functional, organism-based
[2] = Effective concentration expressed as antiparasitic activity against Leishmania promastigotes (Leishmania donovani); NA = Not active; assay type: functional
Plasmodium falciparum [3] = test: Antiparasitic activity against chloroquine-resistant Plasmodium falciparum W2; assay type: functional, organism-based

Measured: EC50

NCCCN(Cc1ccc(O)cc1)Cc1ccc(O)cc1.O=C(O)C(F)(F)F
Not Active: all assays above

NCCCCN(Cc1ccccc1)Cc1ccncc1.O=C(O)C(F)(F)F
Not Active: all assays above

NCCCN(Cc1ccncc1)Cc1ccncc1.O=C(O)C(F)(F)F
Not Active: all assays above

COc1ccc(CN(CCCN)Cc2ccc(OC)c(O)c2)cc1O.O=C(O)C(F)(F)F
Not Active: all assays above
